Where a name gives a salt, the structure may show the parent alone. Read-outs that look alike come from different tables or passages of the source.
Key:
Kunming breed mice [1] = type: in vivo
mice = type: in vivo; settings: Table 5
From the text: The division of animal groups, content of test drugs, dose and administration is the same as those in the body twisting test, while the contra positive is pethidine hydrochloride only.
In the course of the test, the mice show up reactions of hindleg sucking, hindleg kicking, skipping, etc; take the reaction of hindleg sucking as the pain indicator.

[2] = Toxicity test of the active medical ingredients (previous acute toxicology); settings: mouse, in vivo, LD50
Kunming breed mice [3] = type: in vivo; settings: mesaconitine 0.5 mg/kg stomach perfusion
[4] = Table 3, 0.25 mg/kg stomach perfusion
[5] = Table 3, 0.5 mg/kg stomach perfusion
[6] = Table 3, 1 mg/kg stomach perfusion
[7] = Table 3, 2 mg/kg stomach perfusion

CCOC(=O)C1(c2ccccc2)CCN(C)CC1 [Pethidine hydrochloride, pethidine hydrochloride, reference compound]
Body twisting number ( χ ± SD) (Kunming breed mice [1]; mouse, in vivo, 40 mg/kg): 0 ± 0
Pain suppression rate (Kunming breed mice [1]; mouse, in vivo, 40 mg/kg, hydrochloride): 100%

COC[C@]12CN(C)[C@H]3C4C(OC)C1C3(C(OC)CC2O)C1C[C@@]2(O)C(OC(=O)c3ccccc3)C1[C@]4(OC(C)=O)[C@@H](O)C2OC (some centres unmarked) [Mesaconitine, mesaconitine]
Increasing rate of threshold pain after administration ( X ± SD) (mice; 12.5 mg/kg stomach perfusion, 15 minutes): 12.1 ± 45.0%
Increasing rate of threshold pain after administration ( X ± SD) (mice; 12.5 mg/kg stomach perfusion, 30 minutes): −6.3 ± 31.4%
Increasing rate of threshold pain after administration ( X ± SD) (mice; 12.5 mg/kg stomach perfusion, 60 minutes): −0.5 ± 38.7%
Increasing rate of threshold pain after administration ( X ± SD) (mice; 12.5 mg/kg stomach perfusion, 90 minutes): −11.3 ± 34.2%
Increasing rate of threshold pain after administration ( X ± SD) (mice; 12.5 mg/kg stomach perfusion, 120 minutes): 11.1 ± 38.8%
Increasing rate of threshold pain after administration ( X ± SD) (mice; 25 mg/kg stomach perfusion, 15 minutes): 39.7 ± 76.6%
Increasing rate of threshold pain after administration ( X ± SD) (mice; 25 mg/kg stomach perfusion, 30 minutes): 59.2 ± 146.9%
Increasing rate of threshold pain after administration ( X ± SD) (mice; 25 mg/kg stomach perfusion, 60 minutes): 37.2 ± 88.5%
Increasing rate of threshold pain after administration ( X ± SD) (mice; 25 mg/kg stomach perfusion, 90 minutes): 61.3 ± 82.1^Δ %
Increasing rate of threshold pain after administration ( X ± SD) (mice; 25 mg/kg stomach perfusion, 120 minutes): 80.7 ± 100.1%
Increasing rate of threshold pain after administration ( X ± SD) (mice; 50 mg/kg stomach perfusion, 15 minutes): 21.4 ± 42.9%
Increasing rate of threshold pain after administration ( X ± SD) (mice; 50 mg/kg stomach perfusion, 30 minutes): 14.4 ± 34.7%
Increasing rate of threshold pain after administration ( X ± SD) (mice; 50 mg/kg stomach perfusion, 60 minutes): 7.9 ± 37.8%
Increasing rate of threshold pain after administration ( X ± SD) (mice; 50 mg/kg stomach perfusion, 90 minutes): 30.4 ± 44.1^Δ %
Increasing rate of threshold pain after administration ( X ± SD) (mice; 50 mg/kg stomach perfusion, 120 minutes): 36.0 ± 42.6%
Increasing rate of threshold pain after administration ( X ± SD) (mice; mesaconitine 100 mg/kg stomach perfusion, 15 minutes): 124.8 ± 165.4%
Increasing rate of threshold pain after administration ( X ± SD) (mice; mesaconitine 100 mg/kg stomach perfusion, 30 minutes): 97.7 ± 184.6%
Increasing rate of threshold pain after administration ( X ± SD) (mice; mesaconitine 100 mg/kg stomach perfusion, 60 minutes): 64.3 ± 149.5%
Increasing rate of threshold pain after administration ( X ± SD) (mice; mesaconitine 100 mg/kg stomach perfusion, 90 minutes): 108.3 ± 105.0^ΔΔ %
Increasing rate of threshold pain after administration ( X ± SD) (mice; mesaconitine 100 mg/kg stomach perfusion, 120 minutes): 49.0 ± 52.9%
LD50 [2]: 6.41 mg/kg
Pain suppression rate (Kunming breed mice [3]): 62.6%
Body twisting number ( χ ± SD) (Kunming breed mice [1]; [4]): 33.6 ± 11.5
Pain suppression rate (Kunming breed mice [1]; [4]): 14.50%
Body twisting number ( χ ± SD) (Kunming breed mice [1]; [5]): 20.0 ± 9.6^ΔΔ
Pain suppression rate (Kunming breed mice [1]; [5]): 49.11%
Body twisting number ( χ ± SD) (Kunming breed mice [1]; [6]): 21.8 ± 12.6^ΔΔ
Pain suppression rate (Kunming breed mice [1]; [6]): 44.53%
Body twisting number ( χ ± SD) (Kunming breed mice [1]; [7]): 19.3 ± 10.0^ΔΔ
Pain suppression rate (Kunming breed mice [1]; [7]): 50.89%
